According to US20240217947A1, “Morpholinylquinazoline Compound, Pharmaceutical compositions thereof and Use Thereof” (SHANGHAI YINGLI PHARMACEUTICAL CO., LTD, priority 2022, published 2024):
pIC50: −log10 of the molar value.

How the values were obtained:
Format in all cases: biochemical
[1] = target: T1, HDAC8 (Homo sapiens, UniProt Q9BY41); assay: HDAC8 enzyme activity inhibition IC50 evaluation experiment; conditions: HDAC8 10 nM, acetylated peptide 20 μM, 240 min, fluorescence
T1 sequence (Q9BY41 1-377): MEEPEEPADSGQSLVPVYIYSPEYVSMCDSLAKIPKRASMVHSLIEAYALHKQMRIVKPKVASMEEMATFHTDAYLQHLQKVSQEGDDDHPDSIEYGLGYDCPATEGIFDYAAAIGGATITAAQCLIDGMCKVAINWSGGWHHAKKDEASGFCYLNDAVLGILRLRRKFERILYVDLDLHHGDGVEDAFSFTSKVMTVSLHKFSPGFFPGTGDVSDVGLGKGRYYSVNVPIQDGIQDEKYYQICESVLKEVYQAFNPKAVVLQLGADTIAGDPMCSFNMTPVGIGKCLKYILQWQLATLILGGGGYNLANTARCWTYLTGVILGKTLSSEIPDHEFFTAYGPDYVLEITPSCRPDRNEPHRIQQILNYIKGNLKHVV
Procedure: (§1) Effect Example 3 HDAC8, HDAC10 enzyme activity inhibition IC50 evaluation experiment
(§2) Prepare buffer solution (HDAC8: 50 mM Tris 8.0, 2.7 mM KCl, 137 mM NaCl, 1 mM MgCl2, 1 mg/mL BSA; HDAC10: 50 mM Tris 7.5, 0.01% Tween-20, 50 mM NaCl, 0.05 mg/mL BSA) according to the kit instructions, prepared Enzyme solution, substrate solution (acetylated peptide) by using buffer. The test compound samples were dissolved in DMSO and was added to the screening system at a certain starting concentration such as 10 μM, 3-fold dilution, while setting up the DMSO control and the no-enzyme control. The enzyme reaction system includes: buffer, enzyme [final concentration: HDAC8=10 nM, HDAC10=10 nM], substrate (acetylated peptide) [final concentration: Peptide(HDAC8)=20 μM, Peptide(HDAC10)=4 μM], etc. The enzymes and compounds were reacted at room temperature for 15 minutes. After adding the substrate peptide the reaction system was reacted at room temperature for 240 min. Trypsin solution was added [final concentration: Trypsin=50p M] and incubation continued for 120 min. The fluorescence signal data (excitation wavelength 355 nM/emission wavelength 460 nm) was read with Envision instrument. Calculate the inhibition rate at this concentration based on the relative fluorescence units (RFU). The IC50 value was obtained by fitting a curve using the formula Y=Bottom+(Top-Bottom)/(1+(IC50/X)^HillSlope).

[2] = target: T2, HDAC10 (Homo sapiens, UniProt Q969S8); assay: HDAC10 enzyme activity inhibition IC50 evaluation experiment; conditions: HDAC10 10 nM, acetylated peptide 4 μM, 240 min, fluorescence
T2 sequence (Q969S8 1-669): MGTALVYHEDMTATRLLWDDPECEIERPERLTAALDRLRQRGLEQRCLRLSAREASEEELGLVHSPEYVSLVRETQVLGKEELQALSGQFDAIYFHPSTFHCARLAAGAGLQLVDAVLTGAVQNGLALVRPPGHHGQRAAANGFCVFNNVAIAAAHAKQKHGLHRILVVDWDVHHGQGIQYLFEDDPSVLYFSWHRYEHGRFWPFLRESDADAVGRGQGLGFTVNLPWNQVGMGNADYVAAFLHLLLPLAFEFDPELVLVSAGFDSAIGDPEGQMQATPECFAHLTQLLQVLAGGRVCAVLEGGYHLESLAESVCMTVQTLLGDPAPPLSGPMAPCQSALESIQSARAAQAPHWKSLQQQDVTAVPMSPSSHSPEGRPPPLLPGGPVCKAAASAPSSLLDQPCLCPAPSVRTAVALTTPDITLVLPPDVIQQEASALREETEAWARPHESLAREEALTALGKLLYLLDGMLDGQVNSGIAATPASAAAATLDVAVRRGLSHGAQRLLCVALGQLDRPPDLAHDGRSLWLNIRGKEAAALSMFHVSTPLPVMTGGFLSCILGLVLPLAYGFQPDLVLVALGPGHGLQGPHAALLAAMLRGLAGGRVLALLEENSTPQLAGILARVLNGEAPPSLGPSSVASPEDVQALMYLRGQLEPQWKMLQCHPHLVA
Procedure: as §1, §2

[3] = target: PI3Kα (Homo sapiens, UniProt P42336); assay: PI3Kα enzyme activity inhibition IC50 evaluation assay (ADP-Glo Kinase Assay); conditions: ATP 25 μM, PIP2 50 μg/mL, 1 hour room temperature, read-out: PI3K-α IC50
Procedure: Effec Example 1 IC50 evaluation assay for PI3Kα, PI3Kδ, PI3Kβ and PI3Kγ enzyme activity inhibition
The experiment was performed using the ADP-Glo Kinase Assay kit, following the instructions. The following buffer solutions were prepared: 50 mM HEPES, pH 7.5, 3 mM MgCl2, 1 mM EGTA, 100 mM NaCl, 0.03% CHAPS, 2 mM DTT. The test compound samples were dissolved in DMSO and added to the screening system at a certain starting concentration such as 10 μM, 3-fold dilution, while setting up both DMSO control and no kinase control. The optimal concentrations of PI3Kα, PI3Kδ, PI3Kβ and PI3Kγ enzymes, substrate (PIP2) and ATP were prepared in buffer. The enzyme reaction system included: buffer, ATP 25 μM, kinase substrate (PIP2, 50 μg/mL), kinases [PI3Kα (0.15 μg/mL), PI3Kδ (1.2 μg/mL), PI3Kβ (0.3 μg/mL) and PI3Kγ (2.5 μg/mL)], etc. The reaction system was reacted at room temperature for 1 hour. The reaction was terminated by adding a termination reagent (ADP-Glo reagent, 5 μL), and the ADP content in the system was detected using a detection reagent (Kinase Detection Reagent, 10 μL). Signal data were collected using the Envision instrument. Calculate the percentage of (%) inhibition according to the following formula: % inhibition=(DMSO control signal value−sample signal value)/(DMSO control signal value−no-kinase control signal value). The IC50 value was obtained by fitting the curve using the formula Y=Bottom+(Top-Bottom)/(1+(IC50/X)^HillSlope).

Chain of PI3Kα (P42336 whole entry, species assumed): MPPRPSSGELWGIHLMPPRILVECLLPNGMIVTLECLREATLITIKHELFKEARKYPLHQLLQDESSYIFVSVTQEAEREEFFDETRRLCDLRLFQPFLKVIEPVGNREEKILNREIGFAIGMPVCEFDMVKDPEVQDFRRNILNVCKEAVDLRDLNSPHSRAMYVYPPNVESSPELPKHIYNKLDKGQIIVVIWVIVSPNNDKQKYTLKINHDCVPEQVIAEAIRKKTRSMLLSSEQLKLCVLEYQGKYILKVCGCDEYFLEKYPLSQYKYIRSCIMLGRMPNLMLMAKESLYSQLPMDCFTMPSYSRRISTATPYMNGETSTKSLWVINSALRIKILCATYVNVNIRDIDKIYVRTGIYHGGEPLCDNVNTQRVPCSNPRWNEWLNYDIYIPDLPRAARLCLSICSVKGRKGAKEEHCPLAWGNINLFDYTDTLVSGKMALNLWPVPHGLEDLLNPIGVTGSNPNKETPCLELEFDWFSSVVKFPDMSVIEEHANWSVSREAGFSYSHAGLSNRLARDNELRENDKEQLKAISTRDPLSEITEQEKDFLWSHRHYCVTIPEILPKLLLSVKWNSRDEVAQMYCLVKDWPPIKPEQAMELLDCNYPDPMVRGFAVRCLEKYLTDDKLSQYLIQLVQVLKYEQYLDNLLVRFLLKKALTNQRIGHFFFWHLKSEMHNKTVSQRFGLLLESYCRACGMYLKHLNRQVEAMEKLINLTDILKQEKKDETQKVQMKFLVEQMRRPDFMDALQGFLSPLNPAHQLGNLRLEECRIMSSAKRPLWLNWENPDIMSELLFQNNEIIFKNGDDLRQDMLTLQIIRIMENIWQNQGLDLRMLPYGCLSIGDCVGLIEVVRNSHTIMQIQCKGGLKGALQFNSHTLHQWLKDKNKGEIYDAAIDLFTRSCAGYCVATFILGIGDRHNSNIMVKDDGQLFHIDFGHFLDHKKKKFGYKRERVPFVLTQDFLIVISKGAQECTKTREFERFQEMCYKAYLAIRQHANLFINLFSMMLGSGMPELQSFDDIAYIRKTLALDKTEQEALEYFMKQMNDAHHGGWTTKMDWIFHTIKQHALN
Chain of PI3Kα (P27986 whole entry partner, species assumed): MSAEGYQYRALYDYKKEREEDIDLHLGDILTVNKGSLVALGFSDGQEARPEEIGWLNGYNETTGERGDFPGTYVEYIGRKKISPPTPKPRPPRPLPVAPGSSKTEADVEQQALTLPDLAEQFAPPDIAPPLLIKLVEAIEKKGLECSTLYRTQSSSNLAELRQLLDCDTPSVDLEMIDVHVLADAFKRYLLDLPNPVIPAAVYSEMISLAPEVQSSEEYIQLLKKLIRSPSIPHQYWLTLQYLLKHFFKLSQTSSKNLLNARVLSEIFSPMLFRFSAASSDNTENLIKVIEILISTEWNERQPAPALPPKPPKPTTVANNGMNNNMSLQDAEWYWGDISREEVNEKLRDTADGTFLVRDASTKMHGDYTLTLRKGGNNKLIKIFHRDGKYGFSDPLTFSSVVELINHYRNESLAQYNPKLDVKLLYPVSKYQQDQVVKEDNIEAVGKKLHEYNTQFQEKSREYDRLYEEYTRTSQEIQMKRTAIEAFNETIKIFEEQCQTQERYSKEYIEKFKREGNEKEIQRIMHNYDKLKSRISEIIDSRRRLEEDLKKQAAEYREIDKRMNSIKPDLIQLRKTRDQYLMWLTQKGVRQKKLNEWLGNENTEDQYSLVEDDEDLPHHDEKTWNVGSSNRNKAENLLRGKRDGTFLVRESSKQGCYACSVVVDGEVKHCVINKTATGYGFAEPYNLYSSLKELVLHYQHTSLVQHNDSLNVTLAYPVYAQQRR

| SMILES | pIC50 [1] | pIC50 [2] | pIC50 [3] |
| --- | --- | --- | --- |
| COc1ncc(-c2nc(N3CCOCC3)nc3c(OC4CCN(c5ccc(C(=O)NO)cn5)CC4)cc(F)cc23)cc1NS(C)(=O)=O [Compound 40] | 5.00 to 6.00 |  |  |
| COc1ncc(-c2nc(N3CCOCC3)nc3c(OC4CCN(c5ncc(C(=O)NO)cn5)CC4)cc(F)cc23)cc1NS(C)(=O)=O [Compound 39] | 6.00 to 7.00 | 7.00 to 8.00 |  |
| COc1ncc(-c2nc(N3CCOCC3)nc3c(CN4CCN(c5ncc(C(=O)NO)cn5)CC4)cc(F)cc23)cc1NS(C)(=O)=O [Compound 7] |  | 6.00 to 7.00 | 6.00 to 7.00 |
| COc1ncc(-c2nc(N3CCOCC3)nc3c(OCCCCCCC(=O)NO)cc(F)cc23)cc1NS(C)(=O)=O [Compound 9] |  | 6.00 to 7.00 | 5.00 to 6.00 |
| COc1ncc(-c2nc(N3CCOCC3)nc3c(OC4CCN(c5ncc(C(=O)NO)cc5F)CC4)cc(F)cc23)cc1NS(C)(=O)=O [Compound 30] | 6.00 to 7.00 | 6.00 to 7.00 | 6.00 to 7.00 |
